This assay addresses T1, recombinant c-Myc/Max (Homo sapiens, UniProt P01106+P61244).
T1 construct: made in house
In words: Electrophoretic mobility shift assay (EMSA): inhibitory activity on DNA binding of recombinant c-Myc/Max. Particulars: read-out: protein assay IC50. How it is done: 1) Preparation of Recombinant c-Myc and Max Proteins
Recombinant proteins were prepared as described in the following references: K. C. Jung et al., Fatty Acids, Inhibitors for the DNA Binding of c-Myc/Max Dimer, Suppress Proliferation and Induce Apoptosis of Differentiated HL-60 Human Leukemia Cell, Leukemia, 2006, 20(1), 122-7 or Kyung-Chae Jeong et al., Small-Molecule Inhibitors of c-Myc Transcriptional Factor Suppress Proliferation and Induce Apoptosis of Promyelocytic Leukemia Cell via Cell Cycle Arrest, Mol. BioSyst., 2010, 6, 1503-1509.
2) Electrophoretic Mobility Shift Assay (EMSA)
The inhibitory activity of each candidate compound on DNA binding of recombinant c-Myc/Max was measured using an electrophoretic mobility shift assay (EMSA). The ratio of protein-DNA complexes in each sample was evaluated by measuring band intensity. The oligonucleotides (E-box) corresponding to the consensus binding site of Myc/Max were dimerized through an annealing process. The protein mixture was incubated at room temperature for 5 minutes, and a DMSO solution containing each candidate compound was added thereto. The mixture was further incubated for 5 minutes, and the biotinylated DNA was added. To achieve a state of equilibrium, the final mixture was incubated at room temperature for 10 minutes. The protein-DNA complexes were separated from unbound free DNA by pre-electrophoresis using 8% polyacrylamide gel and 1×TBE buffer. After pre-electrophoresis, electrophoresis was performed at 120 V for 1 hour in 1×TBE buffer. Each band was visualized using HRP-conjugated streptavidin and an ECL solution, and band intensity was measured using image analysis software.
(In EMSA bound probe runs differently from free probe, usually more slowly.)

T1 sequence (P01106 whole entry): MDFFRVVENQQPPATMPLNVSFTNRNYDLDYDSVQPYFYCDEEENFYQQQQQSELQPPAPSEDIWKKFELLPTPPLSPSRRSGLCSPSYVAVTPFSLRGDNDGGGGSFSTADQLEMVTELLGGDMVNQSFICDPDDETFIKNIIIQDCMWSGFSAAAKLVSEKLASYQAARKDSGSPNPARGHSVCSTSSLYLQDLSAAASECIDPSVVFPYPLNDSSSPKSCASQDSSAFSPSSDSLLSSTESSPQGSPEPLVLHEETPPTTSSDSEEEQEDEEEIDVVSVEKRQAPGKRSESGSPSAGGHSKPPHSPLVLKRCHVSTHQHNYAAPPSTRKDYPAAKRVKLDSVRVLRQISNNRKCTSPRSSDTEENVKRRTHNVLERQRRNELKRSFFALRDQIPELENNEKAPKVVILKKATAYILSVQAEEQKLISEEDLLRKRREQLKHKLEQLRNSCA
T1 sequence (P61244 whole entry): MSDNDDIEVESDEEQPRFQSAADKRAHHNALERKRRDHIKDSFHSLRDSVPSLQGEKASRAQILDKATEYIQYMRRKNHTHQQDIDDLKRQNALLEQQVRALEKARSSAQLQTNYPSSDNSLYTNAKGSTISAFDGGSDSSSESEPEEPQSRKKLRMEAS

Usually IC50 stands for the point on the concentration scale where inhibition reaches its midpoint. On to `CC(=O)c1c([S+]([O-])Cc2ccccc2C#N)[nH]c2c(Br)ccc(Cl)c2c1=O` (stereo not drawn) [Compound 58, 2-(((3-acetyl-8-bromo-5-chloro-4-oxo-1,4-dihydroquinolin-2-yl)sulfinyl)methyl)benzonitrile], for which the IC50 was < 1000 nM. To `CC(=O)c1c(S(C)(=O)=O)n(C(=O)c2ccc(Br)cc2)c2c(Br)ccc(Cl)c2c1=O` [Compound 21, 3-acetyl-8-bromo-1-(4-bromobenzoyl)-5-chloro-2-(methylsulfonyl)quinolin-4(1H)-one] belongs < 1000 nM; to `CC(=O)c1c([S+]([O-])Cc2ccc(C(F)(F)F)o2)[nH]c2c(Br)ccc(Cl)c2c1=O` (stereo not drawn) [Compound 72, 3-acetyl-8-bromo-5-chloro-2-(((5-(trifluoromethyl)furan-2-yl)methyl)sulfinyl)quinolin-4(1H)-one], < 1000 nM; to `CC(=O)c1c([S+]([O-])Cc2ccc(C(F)(F)F)o2)[nH]c2c(F)ccc(F)c2c1=O` (stereo not drawn) [Compound 81, 3-acetyl-5,8-difluoro-2-(((5-(trifluoromethyl)furan-2-yl)methyl)sulfinyl)quinolin-4(1H)-one], < 1000 nM. Regarding `CC(=O)c1c([S+]([O-])Cc2cc(F)cc(S(F)(F)(F)(F)F)c2)[nH]c2c(Br)ccc(Cl)c2c1=O` (stereo not drawn) [Compound 76, 3-acetyl-8-bromo-5-chloro-2-((3-fluoro-5-(pentafluoro-λ6-sulfanyl)benzyl)sulfinyl)quinolin-4(1H)-one], the IC50 is < 1000 nM. The result for `Cc1cc(C[S+]([O-])c2[nH]c3c(Br)ccc(Cl)c3c(=O)c2C(=O)C(C)C)no1` (stereo not drawn) [Compound 95, 8-bromo-5-chloro-3-isobutyryl-2-(((5-methylisoxazol-3-yl)methyl)sulfinyl)quinolin-4(1H)-one] reads < 1000 nM. The result for `CC(=O)c1c([S+]([O-])Cc2ccc(N)nc2)[nH]c2c(Br)ccc(Cl)c2c1=O` (stereo not drawn) [Compound 100, 3-acetyl-2-(((6-aminopyridin-3-yl)methyl)sulfinyl)-8-bromo-5-chloroquinolin-4(1H)-one] reads < 1000 nM; that for `COc1cc(C[S+]([O-])c2[nH]c3c(Br)ccc(Cl)c3c(=O)c2C(C)=O)cc(OC)c1` (stereo not drawn) [Compound 59, 3-acetyl-8-bromo-5-chloro-2-((3,5-dimethoxybenzyl)sulfinyl)quinolin-4(1H)-one], < 1000 nM. To `CC(=O)c1c([S+]([O-])Cc2ccc(NS(C)(=O)=O)cc2)[nH]c2c(Br)ccc(Cl)c2c1=O` (stereo not drawn) [Compound 103, N-(4-(((3-acetyl-8-bromo-5-chloro-4-oxo-1,4-dihydroquinolin-2-yl)sulfinyl)methyl)phenyl)methanesulfonamide] belongs < 1000 nM; to `CC(=O)c1c([S+](C)[O-])n(S(=O)(=O)C(F)(F)F)c2c(Br)ccc(Cl)c2c1=O` (stereo not drawn) [Compound 36, 3-acetyl-8-bromo-5-chloro-2-(methylsulfinyl)-1-((trifluoromethyl)sulfonyl)quinolin-4(1H)-one], < 1000 nM. Regarding `CC(=O)c1c([S+]([O-])Cc2ccc(C(F)(F)F)nc2C)[nH]c2c(Br)ccc(Cl)c2c1=O` (stereo not drawn) [Compound 102, 3-acetyl-8-bromo-5-chloro-2-(((2-methyl-6-(trifluoromethyl)pyridin-3-yl)methyl)sulfinyl)quinolin-4(1H)-one], the IC50 was < 1000 nM. Consider `CC(=O)c1c([S+]([O-])Cc2ccc([N+](=O)[O-])cc2)[nH]c2c(Cl)ccc(Cl)c2c1=O` (stereo not drawn) [Compound 57, 3-acetyl-5,8-dichloro-2-((4-nitrobenzyl)sulfinyl)quinolin-4(1H)-one], for which the IC50 was < 1000 nM. As for `Cc1cc(C[S+]([O-])c2[nH]c3c(Br)ccc(Cl)c3c(=O)c2C(=O)C2CC2)no1` (stereo not drawn) [Compound 96, 8-bromo-5-chloro-3-(cyclopropanecarbonyl)-2-(((5-methylisoxazol-3-yl)methyl)sulfinyl)quinolin-4(1H)-one], the IC50 was < 1000 nM. Consider `CC(=O)c1c(SCc2ccc(F)c(Cl)c2)[nH]c2c(Br)ccc(Cl)c2c1=O` [Compound 30, 3-acetyl-8-bromo-5-chloro-2-((3-chloro-4-fluorobenzyl)thio)quinolin-4(1H)-one], for which the IC50 was < 1000 nM. To `CC(=O)c1c([S+]([O-])Cc2ccc(C(=O)c3ccccc3)cc2)[nH]c2c(Br)ccc(Cl)c2c1=O` (stereo not drawn) [Compound 63, 3-acetyl-2-((4-benzoylbenzyl)sulfinyl)-8-bromo-5-chloroquinolin-4(1H)-one] belongs < 1000 nM; to `CC(=O)c1c([S+]([O-])C(C)c2ccccc2)[nH]c2c(Br)ccc(Cl)c2c1=O` (stereo not drawn) [Compound 26, 3-acetyl-8-bromo-5-chloro-2-((1-phenylethyl)sulfinyl)quinolin-4(1H)-one], < 1000 nM; to `CSc1c(C(C)=O)c(=O)c2c(Cl)ccc(Br)c2n1S(=O)(=O)c1ccc(Cl)cc1` [Compound 37, 3-acetyl-8-bromo-5-chloro-1-((4-chlorophenyl)sulfonyl)-2-(methylthio)quinolin-4(1H)-one], < 1000 nM. The result for `CC(=O)c1c([S+]([O-])Cc2ccc(S(F)(F)(F)(F)F)cc2)[nH]c2c(F)ccc(F)c2c1=O` (stereo not drawn) [Compound 80, 3-acetyl-5,8-difluoro-2-((4-(pentafluoro-λ6-sulfanyl)benzyl)sulfinyl)quinolin-4(1H)-one] reads < 1000 nM. To `CC(=O)c1c(SCC#N)[nH]c2c(Br)ccc(Cl)c2c1=O` [Compound 66, 2-((3-acetyl-8-bromo-5-chloro-4-oxo-1,4-dihydroquinolin-2-yl)thio)acetonitrile] belongs < 1000 nM; to `CC(=O)c1c([S+]([O-])Cc2cccc(S(F)(F)(F)(F)F)c2)[nH]c2c(Br)ccc(Cl)c2c1=O` (stereo not drawn) [Compound 77, 3-acetyl-8-bromo-5-chloro-2-((3-(pentafluoro-λ6-sulfanyl)benzyl)sulfinyl)quinolin-4(1H)-one], < 1000 nM; to `CC(=O)c1c(SCc2cccc(C#N)c2)[nH]c2c(Br)ccc(Cl)c2c1=O` [Compound 27, 3-(((3-acetyl-8-bromo-5-chloro-4-oxo-1,4-dihydroquinolin-2-yl)thio)methyl)benzonitrile], < 1000 nM. Turning to `CC(=O)c1c([S+]([O-])c2ccc(Br)cc2)[nH]c2c(Br)ccc(Cl)c2c1=O` (stereo not drawn) [Compound 17, 3-acetyl-8-bromo-2-((4-bromophenyl)sulfinyl)-5-chloroquinolin-4(1H)-one], the IC50 is < 1000 nM. Regarding `CC(=O)c1c(SC(C)C)[nH]c2c(Br)ccc(Cl)c2c1=O` [Compound 24, 3-acetyl-8-bromo-5-chloro-2-(isopropylthio)quinolin-4(1H)-one], the IC50 was < 1000 nM. With `CC(=O)c1c([S+]([O-])Cc2c(F)c(F)c(F)c(F)c2F)[nH]c2c(Br)ccc(Cl)c2c1=O` (stereo not drawn) [Compound 78, 3-acetyl-8-bromo-5-chloro-2-(((perfluorophenyl)methyl)sulfinyl)quinolin-4(1H)-one], the IC50 was < 1000 nM.

As to `CC(=O)c1c(SCc2cccc(F)c2)[nH]c2c(Br)ccc(Cl)c2c1=O` [Compound 49, 3-acetyl-8-bromo-5-chloro-2-((3-fluorobenzyl)thio)quinolin-4(1H)-one], the IC50 is < 1000 nM. `CC(=O)c1c([S+]([O-])Cc2ccccc2)nc2c(Br)ccc(Cl)c2c1O` (stereo not drawn) [Compound 53, 1-(2-(benzylsulfinyl)-8-bromo-5-chloro-4-hydroxyquinolin-3-yl)ethan-1-one]: the IC50 is < 1000 nM. The result for `COc1cccc2[nH]c([S+]([O-])Cc3cc(C)on3)c(C(C)=O)c(=O)c12` (stereo not drawn) [Compound 94, 3-acetyl-5-methoxy-2-(((5-methylisoxazol-3-yl)methyl)sulfinyl)quinolin-4(1H)-one] reads < 1000 nM.

Consider `CC(=O)c1c(S/C=C\C(=O)O)[nH]c2c(Br)ccc(Cl)c2c1=O` [Compound 67, (Z)-3-((3-acetyl-8-bromo-5-chloro-4-oxo-1,4-dihydroquinolin-2-yl)thio)acrylic acid], for which the IC50 is < 1000 nM. To `CC(=O)c1c(SCc2ccc(Cl)cc2)[nH]c2c(Br)ccc(Cl)c2c1=O` [Compound 10, 3-acetyl-8-bromo-5-chloro-2-((4-chlorobenzyl)thio)quinolin-4(1H)-one] belongs < 1000 nM.

Regarding `CC(=O)c1c([S+](C)[O-])[nH]c2c(Br)ccc(Cl)c2c1=O` (stereo not drawn) [Compound 1, 3-acetyl-8-bromo-5-chloro-2-(methylsulfinyl)quinolin-4(1H)-one], the IC50 is < 1000 nM. For `CC(=O)c1c([S+](C)[O-])n(C(=O)c2ccc(Br)cc2)c2c(Br)ccc(Cl)c2c1=O` (stereo not drawn) [Compound 9, 3-acetyl-8-bromo-1-(4-bromobenzoyl)-5-chloro-2-(methylsulfinyl)quinolin-4(1H)-one], the IC50 was < 1000 nM. The result for `Cc1cc(C[S+]([O-])c2[nH]c3c(Cl)ccc(Cl)c3c(=O)c2C(=O)c2ccccc2)no1` (stereo not drawn) [Compound 88, 3-benzoyl-5,8-dichloro-2-(((5-methylisoxazol-3-yl)methyl)sulfinyl)quinolin-4(1H)-one] reads < 1000 nM. To `CC(=O)c1c([S+]([O-])Cc2cccc(F)c2)[nH]c2c(Br)ccc(Cl)c2c1=O` (stereo not drawn) [Compound 50, 3-acetyl-8-bromo-5-chloro-2-((3-fluorobenzyl)sulfinyl)quinolin-4(1H)-one] belongs < 1000 nM.

The values are drawn from patent publication US9951021B2, “Compounds for inhibiting c-Myc/Max/DNA complex formation” (NATIONAL CANCER CENTER, priority 2016, dated 2018).
